In patent US8754073B2, “Substituted piperazino-dihydrothienopyrimidines” (Boehringer Ingelheim International GmbH, priority 2007, dated 2014):
Structures can show the parent of a compound that is named as a salt.

target: PDE4B (Homo sapiens, UniProt Q07343); experiment: Scintillation Proximity Assay (SPA) of PDE4B enzyme activity ([H3]-cAMP cleavage); assay type: biochemical; settings: test substance 1 μM; one-hour incubation of [H3]-cAMP with PDE4B enzyme at 30° C.
How it was run: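 SPA read-out: [H3]-cAMP incubated with PDE4B in assay buffer for 1 h at 30 °C, with and without test compound at 1 μM. Reaction stopped by adding yttrium silicate beads that bind the [H3]-AMP product; after 45 min settling, scintillation counted. Value is % inhibition at 1 μM.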

Chain of PDE4B (Q07343 whole entry, species assumed): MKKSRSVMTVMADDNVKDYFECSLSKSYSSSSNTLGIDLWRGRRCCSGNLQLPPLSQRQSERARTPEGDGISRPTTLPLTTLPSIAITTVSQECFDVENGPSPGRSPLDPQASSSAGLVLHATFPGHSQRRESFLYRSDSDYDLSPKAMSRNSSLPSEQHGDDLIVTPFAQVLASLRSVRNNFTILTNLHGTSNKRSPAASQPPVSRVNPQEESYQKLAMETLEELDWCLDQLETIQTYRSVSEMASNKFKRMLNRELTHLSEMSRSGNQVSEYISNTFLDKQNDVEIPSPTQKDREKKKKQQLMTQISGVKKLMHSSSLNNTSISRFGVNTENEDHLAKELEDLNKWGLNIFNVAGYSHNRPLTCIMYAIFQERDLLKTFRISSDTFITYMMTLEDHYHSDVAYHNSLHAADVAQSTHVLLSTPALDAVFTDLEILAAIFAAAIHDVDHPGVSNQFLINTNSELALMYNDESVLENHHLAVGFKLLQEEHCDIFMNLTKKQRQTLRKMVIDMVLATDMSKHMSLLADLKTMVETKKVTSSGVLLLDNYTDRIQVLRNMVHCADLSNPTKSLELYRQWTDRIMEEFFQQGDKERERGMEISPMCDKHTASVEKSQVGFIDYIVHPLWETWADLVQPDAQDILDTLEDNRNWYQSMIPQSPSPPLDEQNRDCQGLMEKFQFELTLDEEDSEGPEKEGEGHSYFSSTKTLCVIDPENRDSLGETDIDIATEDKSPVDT

Row | inhibition at 1 µM [%] | SMILES
1 | 96 | [O-][S+]1CCc2nc(N3CCC(c4ccncc4)CC3)nc(Nc3cccc(F)c3)c21 (stereo not shown) [Example 78, (3-Fluorophenyl)-[5-Oxo-2-(3.4.5.6-Tetrahydro-2H-[4,4′]Bipyridinyl-1-Yl)-6,7-Dihydro-5H-5λ^4-Thieno[3,2-d]Pyrimidin-4-Yl]-Amine Trifluoroacetate]
2 | 94 | CC(C)[C@H](CO)Nc1nc(N2CCC(c3c[nH]c4ccccc34)CC2)nc2c1[S+]([O-])CC2 (stereo partly shown) [Example 12]
3 | 96 | CN1C[C@@H](Nc2nc(N3CCC(c4ccncc4)CC3)nc3c2[S+]([O-])CC3)CCC1=O (stereo partly shown) [Example 48]
4 | 97 | [O-][S+]1CCc2nc(N3CCC(c4cccc(O)c4)CC3)nc(Nc3cccc(F)c3)c21 (stereo not shown) [Example 76]
5 | 96 | [O-][S+]1CCc2nc(N3CCC(c4nc(-c5cccnc5)no4)CC3)nc(Nc3cccc(F)c3)c21 (stereo not shown) [Example 146]
6 | 62 | O=C1Nc2ccccc2C2(CCN(c3nc4c(c(NC5CCOCC5)n3)[S+]([O-])CC4)CC2)N1 (stereo not shown) [Example 66]
7 | 97 | [O-][S+]1CCc2nc(N3CCC(c4noc5ccccc45)CC3)nc(NC3(CO)CC3)c21 (stereo not shown) [Example 31]
8 | 89 | [O-][S+]1CCc2nc(N3CCC(c4nnc5ccccn45)CC3)nc(NC3CCOCC3)c21 (stereo not shown) [Example 124]
9 | 92 | CC(C)[C@H](CO)Nc1nc(N2CCC(c3nc(-c4ccncc4)no3)CC2)nc2c1[S+]([O-])CC2 (stereo partly drawn) [Example 163, (R)-3-Methyl-2-{5-Oxo-2-[4-(3-Pyridin-4-Yl-[1,2,4]Oxadiazol-5-Yl)-Piperidin-1-Yl]-6,7-Dihydro-5H-5λ^4-Thieno[3,2-d]Pyrimidin-4-Ylamino}-Butan-1-Ol Trifluoroacetate]
10 | 93 | Cc1cccc(C2CCN(c3nc4c(c(NC5CCOCC5)n3)[S+]([O-])CC4)CC2)c1 (stereo not shown) [Example 7]

same assay, conditions: test substance 1 μM; one-hour incubation with [H3]-cAMP at 30° C.

Row | SMILES | inhibition at 1 µM [%]
11 | [O-][S+]1CCc2nc(N3CCC(Oc4ccc(F)cc4)CC3)nc(NC3(CO)CC3)c21 (stereo not shown) [Example 167] | 91
12 | COCC(=O)NCC1(c2ccccc2)CCN(c2nc3c(c(NC4(CO)CC4)n2)[S+]([O-])CC3)CC1 (stereo not shown) [Example 216] | 80
13 | CCN(CC)CCOc1ccc(OC2CCN(c3nc4c(c(NC5CCOCC5)n3)[S+]([O-])CC4)CC2)cc1 (stereo not shown) [Example 178, (2-{4-[4-(2-diethylamino-ethoxy)-phenoxy]-piperidin-1-yl}-5-oxo-6,7-dihydro-5H-5λ^4-thieno[3,2-d]pyrimidin-4-yl)-(tetrahydropyran-4-yl)-amine] | 92
14 | CN1CCC(N(C)C(=O)c2cccc(C3CCN(c4nc5c(c(NC6CCOCC6)n4)[S+]([O-])CC5)CC3)c2)CC1 (stereo not shown) [Example 248] | 88

The next lines start with the values.

Row | inhibition at 1 µM [%] | SMILES
15 | 83 | CC(C)[C@H](CO)Nc1nc(N2CCC(c3cc(-c4cccs4)[nH]n3)CC2)nc2c1[S+]([O-])CC2 (stereo partly shown) [Example 292]
16 | 86 | CC(C)[C@H](CO)Nc1nc(N2CCC(CO)(c3ccc(Cl)cc3)CC2)nc2c1[S+]([O-])CC2 (stereo partly shown) [Example 300]
17 | 93 | N#CC1(c2ccc(F)cc2)CCN(c2nc3c(c(NC4(CO)CC4)n2)[S+]([O-])CC3)CC1 (stereo not shown) [Example 295]
18 | 95 | CN1C[C@@H](Nc2nc(N3CCC(CN(C)S(C)(=O)=O)(c4ccccc4)CC3)nc3c2[S+]([O-])CC3)CCC1=O (stereo partly shown) [Example 270, N-methyl-N-{1-[4-(1-methyl-6-oxo-piperidin-3-ylamino)-5-oxo-6,7-dihydro-5H-5λ^4-thieno[3,2-d]pyrimidin-2-yl]-4-phenylpiperidin-4-ylmethyl}-methanesulphonamide]
19 | 89 | COC1(c2ccc(Cl)cc2)CCN(c2nc3c(c(NC4CCOCC4)n2)[S+]([O-])CC3)CC1 (stereo not shown) [Example 313]
20 | 92 | [O-][S+]1CCc2nc(N3CCC(CO)(c4ccc(Cl)cc4)CC3)nc(NC3(CO)CC3)c21 (stereo not shown) [Example 301]
21 | 80 | [O-][S+]1CCc2nc(N3CCC(Oc4ccncc4)CC3)nc(NC3CCOCC3)c21 (stereo not shown) [Example 268]
22 | 88 | COC1(c2ccc(Cl)cc2)CCN(c2nc3c(c(NC4(CO)CC4)n2)[S+]([O-])CC3)CC1 (stereo not shown) [Example 314]
